EP0511033A1, “Extracts of the common lady's mantle, their preparation and their applications” (SYNTHELABO, priority 1991, dated 1992)

Key:
[1] = Superoxide anion scavenging test (NADH/PMS generation, NBT reduction to diformazan, spectrophotometry); type: biochemical; conditions: for concentration donnant 90 % d'inhibition: 90 % inhibition of diformazan coloration
Source text: On a également testé l'activité anti-radicalaire sur l'anion superoxyde généré par la réaction de NADH (nicotinamide adénine dinucléotide hydrate) sur le PMS (phénazine méthosulfate). L'anion superoxyde provoque la réduction du NBT (Nitrobleu de Tétrazolium) en diformazan, de coloration bleu intense. On dose celui-ci par spectrophotométrie (Roback J., Gryglewski RJ., Biomedical Pharmacology, 1988, 37, (5), P. 837-841). On exprime l'activité anti-radicalaire d'une substance en pourcentage d'inhibition du développement de coloration due au diformazan. Par cette méthode de dosage, les extraits d'Alchemille présentent une activité bien supérieure aux 2 témoins testés, qui sont la quercétine et l'acide rosmarinique. Ainsi, on obtient 90 % d'inhibition avec des concentrations respectivement de 0,5 mg/ml d'acide rosmarinique et de quercétine, alors qu'on atteint ce niveau d'inhibition à une concentration de 0,1 mg/ml d'extrait aqueux d'Alchemille. Cet extrait est donc, dans ces conditions, 5 fois plus actif que les 2 témoins qui sont les plus actifs parmi les substances testées.

[2] = Free radical scavenging test on diphénylpicrylhydrazyl hydrate (decrease of absorbance at 513 nm); type: biochemical
Source text: Les extraits d'Alchemille obtenus selon l'invention présentent également des activités anti-radicalaires. On a démontré ces activités in vitro par deux méthodes de dosage. On a réalisé la première méthode de dosage sur un radical libre : le diphénylpicrylhydrazyl hydrate qui absorbe dans le violet à 513 nm. (Lamaison JL., Petitjean-Freytet C., Carnat P., Carnat A., 1988, Plantes Médicinales et Phytothérapie, 22, (4), p. 231-234). Un composé anti-radicalaire, piégeur des radicaux libres, entraîne une inhibition d'apparition de coloration du radical libre témoin, donc une diminution de la densité optique de ce radical libre. L'activité anti-radicalaire d'une substance s'exprime par la diminution du pourcentage d'absorbance du radical libre testé.Dans ces conditions de test, un extrait d'Alchemille obtenu selon l'invention présente une activité similaire à la vitamine E qui est la substance de référence la plus utilisée.

| Compound | concentration donnant 90 % d'inhibition [1] | INHIBITION % ([1]; concentration 0,01 mg/ml) | INHIBITION % ([1]; concentration 0,1 mg/ml) | INHIBITION % ([1]; concentration 0,05 mg/ml) | INHIBITION % ([1]; concentration 0,5 mg/ml) | INHIBITION % ([1]; concentration 1 mg/ml) | activité anti-radicalaire (comparison in words) ([2]; compared with vitamine E) | INHIBITION % ([2]; concentration 0,01 mg/ml) | INHIBITION % ([2]; concentration 0,1 mg/ml) | INHIBITION % ([2]; concentration 0,05 mg/ml) | INHIBITION % ([2]; concentration 0,5 mg/ml) | INHIBITION % ([2]; concentration 1 mg/ml) |
| --- | --- | --- | --- | --- | --- | --- | --- | --- | --- | --- | --- | --- |
| O=C(/C=C/c1ccc(O)c(O)c1)O[C@H](Cc1ccc(O)c(O)c1)C(=O)O [Acide rosmarinique] | 0,5 mg/ml | 2% | 59% | 28% | 90% | 99% |  |  |  |  |  |  |
| O=C(/C=C/c1ccc(O)c(O)c1)OC1CC(OC(=O)/C=C/c2ccc(O)c(O)c2)(C(=O)O)CC(O)C1O (centres unmarked) [Cynarine] |  |  |  |  |  |  | activité légèrement supérieure à la vitamine E | 16% | 89% | 60% | 94% | 96% |
| O=c1c(O)c(-c2ccc(O)c(O)c2)oc2cc(O)cc(O)c12 [Quercétine] | 0,5 mg/ml | 1% | 69% | 31% | 91% | 98% |  |  |  |  |  |  |
| Vitamine E |  |  |  |  |  |  |  | 9% | 61% | 28% | 95% | 96% |
